Assay results reported in PMC12670405, “Second-Generation AURKA-Targeting PROTACs: Structural Optimization toward in Vivo Degradation in Neuroblastoma” (Journal of Medicinal Chemistry, 2025).

What was measured:
Assay in all cases: KINOMEscan scanMAX
Type in all cases: binding
[1] = biological target: T1, JNK3 (Homo sapiens, UniProt P53779); conditions: read-out: Percent Control
T1 construct: purchased Eurofins Discovery (DiscoverX KINOMEscan scanMAX)
Description: (§1) The kinome-wide binding assay was performed by Eurofins Discovery using the scanMAX screening platform. More information can be found on the Eurofins Discovery Web site.

[2] = biological target: T2, FGR (Homo sapiens, UniProt P09769); conditions: read-out: Percent Control
T2 construct: purchased Eurofins Discovery (DiscoverX KINOMEscan scanMAX)
Description: as §1

[3] = biological target: T3, DMPK (Homo sapiens, UniProt Q09013); conditions: read-out: Percent Control
T3 construct: purchased Eurofins Discovery (DiscoverX KINOMEscan scanMAX)
Description: as §1

[4] = biological target: T4, TGFBR1 (Homo sapiens, UniProt P36897); conditions: read-out: Percent Control
T4 construct: purchased Eurofins Discovery (DiscoverX KINOMEscan scanMAX)
Description: as §1

[5] = biological target: T5, MET(Y1235D) (Homo sapiens, UniProt P08581, Y1235D); conditions: read-out: Percent Control
T5 construct: purchased Eurofins Discovery (DiscoverX KINOMEscan scanMAX)
Description: as §1

[6] = biological target: T6, PRP4 (Homo sapiens, UniProt Q13523); conditions: read-out: Percent Control
T6 construct: purchased Eurofins Discovery (DiscoverX KINOMEscan scanMAX)
Description: as §1

[7] = biological target: T7, AMPK-alpha2 (Homo sapiens, UniProt P54646); conditions: read-out: Percent Control
T7 construct: purchased Eurofins Discovery (DiscoverX KINOMEscan scanMAX)
Description: as §1

[8] = biological target: T8, HCK (Homo sapiens, UniProt P08631); conditions: read-out: Percent Control
T8 construct: purchased Eurofins Discovery (DiscoverX KINOMEscan scanMAX)
T8 sequence (P08631 whole entry): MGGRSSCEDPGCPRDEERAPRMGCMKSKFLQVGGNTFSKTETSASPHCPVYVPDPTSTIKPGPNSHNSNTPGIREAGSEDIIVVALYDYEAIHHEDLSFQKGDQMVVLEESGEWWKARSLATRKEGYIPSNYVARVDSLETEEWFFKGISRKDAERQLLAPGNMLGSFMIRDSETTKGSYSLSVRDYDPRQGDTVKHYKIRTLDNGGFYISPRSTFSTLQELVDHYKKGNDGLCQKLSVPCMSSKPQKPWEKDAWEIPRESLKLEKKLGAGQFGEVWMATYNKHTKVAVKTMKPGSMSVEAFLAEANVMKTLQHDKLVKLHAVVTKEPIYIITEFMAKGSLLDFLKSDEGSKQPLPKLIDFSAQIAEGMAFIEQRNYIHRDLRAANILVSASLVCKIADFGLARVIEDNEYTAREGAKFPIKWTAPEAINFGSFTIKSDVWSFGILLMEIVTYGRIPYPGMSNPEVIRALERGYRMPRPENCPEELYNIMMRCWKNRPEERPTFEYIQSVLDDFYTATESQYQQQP
Description: as §1

[9] = biological target: T9, GSK3B (Homo sapiens, UniProt P49841); conditions: read-out: Percent Control
T9 construct: purchased Eurofins Discovery (DiscoverX KINOMEscan scanMAX)
Description: as §1

[10] = biological target: T10, CLK2 (Homo sapiens, UniProt P49760); conditions: read-out: Percent Control
T10 construct: purchased Eurofins Discovery (DiscoverX KINOMEscan scanMAX)
T10 sequence (P49760 whole entry): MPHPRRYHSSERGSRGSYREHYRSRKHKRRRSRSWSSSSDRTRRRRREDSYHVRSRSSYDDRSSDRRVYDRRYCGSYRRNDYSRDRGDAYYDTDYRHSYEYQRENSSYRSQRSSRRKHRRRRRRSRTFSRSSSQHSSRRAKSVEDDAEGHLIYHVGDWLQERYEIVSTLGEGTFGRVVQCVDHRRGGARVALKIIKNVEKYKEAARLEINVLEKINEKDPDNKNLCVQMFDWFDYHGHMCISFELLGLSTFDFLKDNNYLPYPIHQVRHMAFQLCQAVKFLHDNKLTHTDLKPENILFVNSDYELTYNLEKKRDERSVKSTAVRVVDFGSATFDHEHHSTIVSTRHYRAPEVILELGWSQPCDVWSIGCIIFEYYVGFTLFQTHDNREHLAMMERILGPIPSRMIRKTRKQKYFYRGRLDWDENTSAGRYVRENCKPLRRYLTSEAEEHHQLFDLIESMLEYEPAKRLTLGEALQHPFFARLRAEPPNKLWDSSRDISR
Description: as §1

[11] = biological target: T11, ABL1-nonphosphorylated (Homo sapiens, UniProt P00519); conditions: read-out: Percent Control
T11 construct: purchased Eurofins Discovery (DiscoverX KINOMEscan scanMAX)
Description: as §1

[12] = biological target: T12, LATS2 (Homo sapiens, UniProt Q9NRM7); conditions: read-out: Percent Control
T12 construct: purchased Eurofins Discovery (DiscoverX KINOMEscan scanMAX)
T12 sequence (Q9NRM7 whole entry): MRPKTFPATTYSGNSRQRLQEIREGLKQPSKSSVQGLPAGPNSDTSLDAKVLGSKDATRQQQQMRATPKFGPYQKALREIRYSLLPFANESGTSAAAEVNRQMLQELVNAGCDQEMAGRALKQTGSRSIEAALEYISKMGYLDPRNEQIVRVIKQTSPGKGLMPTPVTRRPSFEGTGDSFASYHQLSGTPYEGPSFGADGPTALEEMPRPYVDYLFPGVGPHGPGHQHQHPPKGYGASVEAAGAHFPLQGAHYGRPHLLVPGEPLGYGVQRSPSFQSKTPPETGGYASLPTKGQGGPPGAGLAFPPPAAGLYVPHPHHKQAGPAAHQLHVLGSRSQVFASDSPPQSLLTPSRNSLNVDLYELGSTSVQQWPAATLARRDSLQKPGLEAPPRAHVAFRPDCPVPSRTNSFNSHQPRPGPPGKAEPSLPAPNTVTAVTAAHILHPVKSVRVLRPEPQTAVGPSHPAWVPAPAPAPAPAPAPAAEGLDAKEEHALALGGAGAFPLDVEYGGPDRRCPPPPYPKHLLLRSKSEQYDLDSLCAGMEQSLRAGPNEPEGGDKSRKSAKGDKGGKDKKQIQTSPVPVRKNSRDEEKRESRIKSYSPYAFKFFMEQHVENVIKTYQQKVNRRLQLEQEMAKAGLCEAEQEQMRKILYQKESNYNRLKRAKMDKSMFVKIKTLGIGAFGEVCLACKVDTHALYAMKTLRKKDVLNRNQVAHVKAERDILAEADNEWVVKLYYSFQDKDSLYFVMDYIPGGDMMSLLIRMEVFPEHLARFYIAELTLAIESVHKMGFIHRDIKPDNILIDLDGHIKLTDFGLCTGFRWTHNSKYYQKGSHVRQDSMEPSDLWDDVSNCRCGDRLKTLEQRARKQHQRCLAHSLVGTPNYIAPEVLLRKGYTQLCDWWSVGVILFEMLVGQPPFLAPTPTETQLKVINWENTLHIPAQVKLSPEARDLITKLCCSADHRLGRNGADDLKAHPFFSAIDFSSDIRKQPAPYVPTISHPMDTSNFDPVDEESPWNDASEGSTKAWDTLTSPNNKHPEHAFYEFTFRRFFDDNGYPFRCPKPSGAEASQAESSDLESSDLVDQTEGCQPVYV
Description: as §1

[13] = biological target: T13, EPHB3 (Homo sapiens, UniProt P54753); conditions: read-out: Percent Control
T13 construct: purchased Eurofins Discovery (DiscoverX KINOMEscan scanMAX)
Description: as §1

[14] = biological target: T14, MAP3K2 (Homo sapiens, UniProt Q9Y2U5); conditions: read-out: Percent Control
T14 construct: purchased Eurofins Discovery (DiscoverX KINOMEscan scanMAX)
T14 sequence (Q9Y2U5 whole entry): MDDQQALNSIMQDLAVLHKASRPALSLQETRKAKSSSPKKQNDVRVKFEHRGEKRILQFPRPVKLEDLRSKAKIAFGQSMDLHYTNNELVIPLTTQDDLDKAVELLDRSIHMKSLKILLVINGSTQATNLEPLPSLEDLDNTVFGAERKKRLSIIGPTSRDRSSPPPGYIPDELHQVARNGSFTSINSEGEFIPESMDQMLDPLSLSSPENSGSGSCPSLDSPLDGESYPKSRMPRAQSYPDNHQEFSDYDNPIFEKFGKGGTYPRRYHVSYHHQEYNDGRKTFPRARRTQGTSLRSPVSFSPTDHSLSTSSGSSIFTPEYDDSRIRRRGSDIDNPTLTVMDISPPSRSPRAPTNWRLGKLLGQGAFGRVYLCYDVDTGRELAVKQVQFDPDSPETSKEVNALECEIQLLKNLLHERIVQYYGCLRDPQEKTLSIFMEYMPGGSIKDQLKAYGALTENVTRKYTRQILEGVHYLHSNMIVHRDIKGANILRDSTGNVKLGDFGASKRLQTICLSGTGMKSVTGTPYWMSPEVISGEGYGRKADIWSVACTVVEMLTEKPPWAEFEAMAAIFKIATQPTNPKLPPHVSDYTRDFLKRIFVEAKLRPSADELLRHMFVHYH
Description: as §1

[15] = biological target: T15, ERK8 (Homo sapiens, UniProt Q8TD08); conditions: read-out: Percent Control
T15 construct: purchased Eurofins Discovery (DiscoverX KINOMEscan scanMAX)
Description: as §1

[16] = biological target: T16, PLK4 (Homo sapiens, UniProt O00444); conditions: read-out: Percent Control
T16 construct: purchased Eurofins Discovery (DiscoverX KINOMEscan scanMAX)
Description: as §1

[17] = biological target: T17, AURKC (Homo sapiens, UniProt Q9UQB9); conditions: read-out: Percent Control
T17 construct: purchased Eurofins Discovery (DiscoverX KINOMEscan scanMAX)
T17 sequence (Q9UQB9 whole entry): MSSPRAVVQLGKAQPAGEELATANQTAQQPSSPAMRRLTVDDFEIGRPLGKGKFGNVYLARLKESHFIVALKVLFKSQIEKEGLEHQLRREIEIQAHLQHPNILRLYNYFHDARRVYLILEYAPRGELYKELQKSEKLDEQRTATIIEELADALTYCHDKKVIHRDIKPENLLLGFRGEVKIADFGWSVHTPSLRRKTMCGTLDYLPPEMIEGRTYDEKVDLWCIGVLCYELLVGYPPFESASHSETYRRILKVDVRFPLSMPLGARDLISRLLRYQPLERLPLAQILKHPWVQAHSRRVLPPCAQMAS
Description: as §1

[18] = biological target: T18, CDK4 (Homo sapiens, UniProt P11802); conditions: read-out: Percent Control
T18 construct: purchased Eurofins Discovery (DiscoverX KINOMEscan scanMAX)
Description: as §1

[19] = biological target: T19, KIT (Homo sapiens, UniProt P10721); conditions: read-out: Percent Control
T19 construct: purchased Eurofins Discovery (DiscoverX KINOMEscan scanMAX)
T19 sequence (P10721 26-976): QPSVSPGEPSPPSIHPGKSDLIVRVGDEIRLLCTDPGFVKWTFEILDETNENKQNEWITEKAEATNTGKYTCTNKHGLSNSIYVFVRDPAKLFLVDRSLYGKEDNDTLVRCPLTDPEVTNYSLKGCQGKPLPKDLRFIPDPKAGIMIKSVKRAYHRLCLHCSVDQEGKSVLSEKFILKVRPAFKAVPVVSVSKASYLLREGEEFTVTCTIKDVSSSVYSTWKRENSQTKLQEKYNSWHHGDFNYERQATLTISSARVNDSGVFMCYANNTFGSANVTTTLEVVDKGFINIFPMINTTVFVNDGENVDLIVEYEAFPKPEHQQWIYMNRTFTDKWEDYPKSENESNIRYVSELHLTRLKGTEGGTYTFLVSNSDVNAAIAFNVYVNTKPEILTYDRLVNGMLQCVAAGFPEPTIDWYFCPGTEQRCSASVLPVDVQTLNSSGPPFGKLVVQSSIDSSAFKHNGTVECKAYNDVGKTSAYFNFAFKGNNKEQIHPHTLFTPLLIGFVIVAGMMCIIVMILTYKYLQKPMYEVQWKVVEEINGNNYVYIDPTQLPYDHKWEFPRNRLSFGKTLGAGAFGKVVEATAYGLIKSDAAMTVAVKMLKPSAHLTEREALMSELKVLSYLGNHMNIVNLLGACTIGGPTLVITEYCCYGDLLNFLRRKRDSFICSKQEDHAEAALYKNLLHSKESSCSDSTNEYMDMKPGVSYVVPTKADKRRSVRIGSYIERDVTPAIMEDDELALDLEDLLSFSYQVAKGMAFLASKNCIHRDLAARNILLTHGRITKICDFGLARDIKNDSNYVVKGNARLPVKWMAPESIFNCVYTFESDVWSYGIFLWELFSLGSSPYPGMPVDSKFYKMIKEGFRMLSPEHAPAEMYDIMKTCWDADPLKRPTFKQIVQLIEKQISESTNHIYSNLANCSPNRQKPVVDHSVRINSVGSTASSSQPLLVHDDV
Description: as §1

[20] = biological target: T20, MUSK (Homo sapiens, UniProt O15146); conditions: read-out: Percent Control
T20 construct: purchased Eurofins Discovery (DiscoverX KINOMEscan scanMAX)
T20 sequence (O15146 24-869): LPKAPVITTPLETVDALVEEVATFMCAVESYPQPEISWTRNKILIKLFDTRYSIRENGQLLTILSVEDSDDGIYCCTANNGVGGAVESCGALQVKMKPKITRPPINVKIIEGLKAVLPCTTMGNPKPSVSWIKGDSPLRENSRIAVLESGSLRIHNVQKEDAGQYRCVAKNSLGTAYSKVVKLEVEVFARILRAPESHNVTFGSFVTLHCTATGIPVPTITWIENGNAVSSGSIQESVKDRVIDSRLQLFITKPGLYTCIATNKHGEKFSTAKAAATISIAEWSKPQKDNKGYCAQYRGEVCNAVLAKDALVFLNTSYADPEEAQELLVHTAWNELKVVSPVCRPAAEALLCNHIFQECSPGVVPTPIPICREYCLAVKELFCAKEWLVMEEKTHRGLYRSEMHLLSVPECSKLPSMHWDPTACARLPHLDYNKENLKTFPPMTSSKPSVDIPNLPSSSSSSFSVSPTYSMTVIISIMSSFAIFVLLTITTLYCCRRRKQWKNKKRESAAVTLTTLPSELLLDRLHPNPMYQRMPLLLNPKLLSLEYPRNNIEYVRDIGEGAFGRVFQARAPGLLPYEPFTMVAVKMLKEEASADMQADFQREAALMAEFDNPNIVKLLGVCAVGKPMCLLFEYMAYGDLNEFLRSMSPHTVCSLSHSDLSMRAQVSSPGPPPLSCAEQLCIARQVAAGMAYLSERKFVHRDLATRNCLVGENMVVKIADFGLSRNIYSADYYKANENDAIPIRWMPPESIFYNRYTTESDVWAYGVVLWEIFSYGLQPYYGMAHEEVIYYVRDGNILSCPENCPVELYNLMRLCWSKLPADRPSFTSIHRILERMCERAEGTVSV
Description: as §1

[21] = biological target: T21, INSR (Homo sapiens, UniProt P06213); conditions: read-out: Percent Control
T21 construct: purchased Eurofins Discovery (DiscoverX KINOMEscan scanMAX)
Description: as §1

[22] = biological target: T22, TYK2(JH1domain-catalytic) (Homo sapiens, UniProt P29597); conditions: read-out: Percent Control
T22 construct: TYK2(JH1domain-catalytic); purchased Eurofins Discovery (DiscoverX KINOMEscan scanMAX)
Description: as §1

[23] = biological target: T23, DAPK1 (Homo sapiens, UniProt P53355); conditions: read-out: Percent Control
T23 construct: purchased Eurofins Discovery (DiscoverX KINOMEscan scanMAX)
Description: as §1

[24] = biological target: T24, CSF1R (Homo sapiens, UniProt P07333); conditions: read-out: Percent Control
T24 construct: purchased Eurofins Discovery (DiscoverX KINOMEscan scanMAX)
Description: as §1

[25] = biological target: T25, CDKL2 (Homo sapiens, UniProt Q92772); conditions: read-out: Percent Control
T25 construct: purchased Eurofins Discovery (DiscoverX KINOMEscan scanMAX)
Description: as §1

[26] = biological target: T26, CDK4-cyclinD1 (Homo sapiens, UniProt P11802); conditions: read-out: Percent Control
T26 construct: purchased Eurofins Discovery (DiscoverX KINOMEscan scanMAX)
Description: as §1

[27] = biological target: T27, PLK1 (Homo sapiens, UniProt P53350); conditions: read-out: Percent Control
T27 construct: purchased Eurofins Discovery (DiscoverX KINOMEscan scanMAX)
Description: as §1

[28] = biological target: T28, FLT3(D835V) (Homo sapiens, UniProt P36888, D835V); conditions: read-out: Percent Control
T28 construct: purchased Eurofins Discovery (DiscoverX KINOMEscan scanMAX)
Description: as §1

[29] = biological target: T29, LZK (Homo sapiens, UniProt O43283); conditions: read-out: Percent Control
T29 construct: purchased Eurofins Discovery (DiscoverX KINOMEscan scanMAX)
Description: as §1

[30] = biological target: T30, ABL1 (Homo sapiens, UniProt P00519); conditions: 1000 nM; read-out: Percent Control
T30 construct: purchased Eurofins Discovery
Description: as §1

[31] = biological target: T31, ABL1-phosphorylated (Homo sapiens, UniProt P00519); conditions: read-out: Percent Control
T31 construct: purchased Eurofins Discovery (DiscoverX KINOMEscan scanMAX)
Description: as §1

[32] = biological target: T32, PFTAIRE2 (Homo sapiens, UniProt Q96Q40); conditions: read-out: Percent Control
T32 construct: purchased Eurofins Discovery (DiscoverX KINOMEscan scanMAX)
Description: as §1

[33] = biological target: T33, ARK5 (Homo sapiens, UniProt O60285); conditions: read-out: Percent Control
T33 construct: purchased Eurofins Discovery (DiscoverX KINOMEscan scanMAX)
Description: as §1

[34] = biological target: T34, MST1 (Homo sapiens, UniProt Q13043); conditions: read-out: Percent Control
T34 construct: purchased Eurofins Discovery (DiscoverX KINOMEscan scanMAX)
Description: as §1

Q: What does the source list for `Cc1cc(Nc2ccc(F)c(CC3(C(=O)N4CCC(F)(CN5CCN(c6ccc(N7CCC(=O)NC7=O)cn6)CC5)CC4)CCN(Cc4cccc(Cl)c4F)CC3)n2)n[nH]1` [SK5527]?
A: remaining binding at 0.1 µM ([1]; 100 nM): 63%; remaining binding at 1 µM ([1]; 1000 nM): 69%; remaining binding at 0.1 µM ([2]; 100 nM): 89%; remaining binding at 1 µM ([2]; 1000 nM): 61%; remaining binding at 0.1 µM ([3]; 100 nM): 88%; remaining binding at 1 µM ([3]; 1000 nM): 90%; remaining binding at 0.1 µM ([4]; 100 nM): 100%; remaining binding at 1 µM ([4]; 1000 nM): 100%; remaining binding at 0.1 µM ([5]; 100 nM): 86%; remaining binding at 1 µM ([5]; 1000 nM): 100%; remaining binding at 0.1 µM ([6]; 100 nM): 100%; remaining binding at 1 µM ([6]; 1000 nM): 74%; remaining binding at 0.1 µM ([7]; 100 nM): 93%; remaining binding at 1 µM ([7]; 1000 nM): 100%; remaining binding at 0.1 µM ([8]; 100 nM): 100%; remaining binding at 1 µM ([8]; 1000 nM): 100%; remaining binding at 0.1 µM ([9]; 100 nM): 82%; remaining binding at 1 µM ([9]; 1000 nM): 78%; remaining binding at 0.1 µM ([10]; 100 nM): 88%; remaining binding at 1 µM ([10]; 1000 nM): 93%; remaining binding at 0.1 µM ([11]; 100 nM): 55%; remaining binding at 1 µM ([11]; 1000 nM): 8.4%; remaining binding at 0.1 µM ([12]; 100 nM): 69%; remaining binding at 1 µM ([12]; 1000 nM): 43%; remaining binding at 0.1 µM ([13]; 100 nM): 100%; remaining binding at 1 µM ([13]; 1000 nM): 100%; remaining binding at 0.1 µM ([14]; 100 nM): 92%; remaining binding at 1 µM ([14]; 1000 nM): 73%; remaining binding at 0.1 µM ([15]; 100 nM): 89%; remaining binding at 1 µM ([15]; 1000 nM): 92%; remaining binding at 0.1 µM ([16]; 100 nM): 76%; remaining binding at 1 µM ([16]; 1000 nM): 29%; remaining binding at 0.1 µM ([17]; 100 nM): 100%; remaining binding at 1 µM ([17]; 1000 nM): 85%; remaining binding at 0.1 µM ([18]; 100 nM): 72%; remaining binding at 1 µM ([18]; 1000 nM): 90%; remaining binding at 0.1 µM ([19]; 100 nM): 100%; remaining binding at 1 µM ([19]; 1000 nM): 61%; remaining binding at 0.1 µM ([20]; 100 nM): 97%; remaining binding at 1 µM ([20]; 1000 nM): 95%; remaining binding at 0.1 µM ([21]; 100 nM): 85%; remaining binding at 1 µM ([21]; 1000 nM): 85%; remaining binding at 0.1 µM ([22]; 100 nM): 79%; remaining binding at 1 µM ([22]; 1000 nM): 81%; remaining binding at 0.1 µM ([23]; 100 nM): 85%; remaining binding at 1 µM ([23]; 1000 nM): 81%; remaining binding at 0.1 µM ([24]; 100 nM): 97%; remaining binding at 1 µM ([24]; 1000 nM): 90%; remaining binding at 0.1 µM ([25]; 100 nM): 90%; remaining binding at 1 µM ([25]; 1000 nM): 100%; remaining binding at 0.1 µM ([26]; 100 nM): 100%; remaining binding at 1 µM ([26]; 1000 nM): 87%; remaining binding at 0.1 µM ([27]; 100 nM): 58%; remaining binding at 1 µM ([27]; 1000 nM): 82%; remaining binding at 0.1 µM ([28]; 100 nM): 100%; remaining binding at 1 µM ([28]; 1000 nM): 41%; remaining binding at 0.1 µM ([29]; 100 nM): 92%; remaining binding at 1 µM ([29]; 1000 nM): 90%; remaining binding at 1 µM [30]: 8.4%; remaining binding at 0.1 µM ([31]; 100 nM): 67%; remaining binding at 1 µM ([31]; 1000 nM): 48%; remaining binding at 0.1 µM ([32]; 100 nM): 75%; remaining binding at 1 µM ([32]; 1000 nM): 80%; remaining binding at 0.1 µM ([33]; 100 nM): 83%; remaining binding at 1 µM ([33]; 1000 nM): 90%; remaining binding at 0.1 µM ([34]; 100 nM): 100%; remaining binding at 1 µM ([34]; 1000 nM): 100%
